According to ChEMBL document CHEMBL1152816 (J Med Chem, 2009):
pIC50: −log10 of the molar value.

Columns and labels:
Rattus norvegicus [1] = assay: Antiinflammatory activity against carrageenan-induced foot paw edema in po dosed rat after 3 hrs; assay type: functional
[2] = biological target: T1, Prostaglandin G/H synthase 1 (Bos taurus, UniProt O62664)
T1 sequence (O62664 whole entry): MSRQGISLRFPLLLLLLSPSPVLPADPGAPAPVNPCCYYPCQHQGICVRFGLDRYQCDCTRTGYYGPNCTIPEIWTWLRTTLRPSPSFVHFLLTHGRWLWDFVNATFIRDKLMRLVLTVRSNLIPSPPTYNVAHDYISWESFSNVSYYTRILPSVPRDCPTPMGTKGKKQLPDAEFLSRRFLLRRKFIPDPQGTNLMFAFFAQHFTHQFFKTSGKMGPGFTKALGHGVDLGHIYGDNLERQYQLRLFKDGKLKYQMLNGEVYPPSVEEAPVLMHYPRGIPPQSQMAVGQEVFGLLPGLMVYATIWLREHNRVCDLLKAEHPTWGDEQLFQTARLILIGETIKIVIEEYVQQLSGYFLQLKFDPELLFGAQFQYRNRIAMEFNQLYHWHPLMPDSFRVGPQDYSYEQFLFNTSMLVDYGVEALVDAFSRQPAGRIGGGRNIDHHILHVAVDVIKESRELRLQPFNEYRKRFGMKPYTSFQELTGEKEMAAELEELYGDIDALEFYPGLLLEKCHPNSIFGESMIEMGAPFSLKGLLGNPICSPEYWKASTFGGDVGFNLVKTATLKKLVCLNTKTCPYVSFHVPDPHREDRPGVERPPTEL
Description: Inhibition of bovine COX1 by enzyme immunoassay

[3] = Inhibition of potato 5LOX by enzyme immunoassay; design: species or system Solanum tuberosum
Rattus norvegicus [4] = assay: Antiinflammatory activity against carrageenan-induced foot paw edema in rat at 150 mg/kg, po after 3 hrs; assay type: functional
[5] = biological target: T2, Prostaglandin G/H synthase 2 (Homo sapiens, UniProt P35354); assay: Inhibition of human recombinant COX2 by enzyme immunoassay
T2 sequence (P35354 whole entry): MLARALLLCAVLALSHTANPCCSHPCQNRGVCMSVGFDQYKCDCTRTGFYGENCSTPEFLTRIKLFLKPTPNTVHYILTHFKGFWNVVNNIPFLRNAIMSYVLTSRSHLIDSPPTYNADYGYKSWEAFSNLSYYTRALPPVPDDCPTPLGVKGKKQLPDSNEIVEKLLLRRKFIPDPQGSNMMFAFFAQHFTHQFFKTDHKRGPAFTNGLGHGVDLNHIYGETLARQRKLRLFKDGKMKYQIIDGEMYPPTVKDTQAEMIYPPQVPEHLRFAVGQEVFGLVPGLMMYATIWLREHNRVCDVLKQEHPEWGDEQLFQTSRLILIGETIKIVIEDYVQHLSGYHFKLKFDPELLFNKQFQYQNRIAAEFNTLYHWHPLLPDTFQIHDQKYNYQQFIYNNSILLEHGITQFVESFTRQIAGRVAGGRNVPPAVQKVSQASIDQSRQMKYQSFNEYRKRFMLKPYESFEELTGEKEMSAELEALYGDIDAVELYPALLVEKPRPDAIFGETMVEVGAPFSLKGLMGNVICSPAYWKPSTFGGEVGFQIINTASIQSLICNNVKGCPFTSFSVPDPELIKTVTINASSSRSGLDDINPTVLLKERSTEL

Structure (SMILES)	pIC50 [2]	pIC50 [3]	pIC50 [5]	ED50 (Rattus norvegicus [1]) [mg/kg]	Activity (Rattus norvegicus [4]) [%]
CS(=O)(=O)c1ccc(-n2nc(C(F)(F)F)cc2-c2ccn(C(F)F)c(=O)c2)cc1	5.11	5.36	5.74	42.9	–
NS(=O)(=O)c1ccc(-n2nc(C(F)(F)F)cc2-c2ccnc(Cl)c2)cc1	5.08	6.41	6.14	> 150	33.3
NS(=O)(=O)c1ccc(-n2nc(C(F)(F)F)cc2-c2ccn(C(F)F)c(=O)c2)cc1	4.88	5.30	6.16	27.7	–
CC(C)Cc1ccc(C(C)C(=O)O)cc1 (centres undefined) [IBUPROFEN]	–	–	–	67.4	–

Further molecules by rising pIC50 [3], results first:

pIC50 [2]	pIC50 [3]	pIC50 [5]	Structure (SMILES)	ED50 (Rattus norvegicus [1]) [mg/kg]	Activity (Rattus norvegicus [4]) [%]
–	5.40	–	O=C(O)/C=C/c1ccc(O)c(O)c1 [CAFFEIC ACID]	–	–
3.59	6.33	–	CS(=O)(=O)c1ccc(-n2nc(C(F)(F)F)cc2-c2ccnc(Cl)c2)cc1	> 150	43.1
